Active and inactive are the calls of the source. The rule behind the calls is not given here.

The assay has as its system L. donovani-infected THP-1 macrophages, intracellular amastigote imaging. As to the kind of experiment: intracellular L. donovani amastigote inhibition, imaging, THP-1 host macrophages, host toxicity (AID 1159564).
Where [1] appears, read: measured here: THP-1 host cell toxicity.
Where [2] appears, read: measured here: amastigotes per macrophage.

For `COc1ccc(-c2csc(NC(=O)c3ccc([N+](=O)[O-])s3)n2)cc1OC`, the IC50 (in general, the point on the concentration scale where inhibition reaches its midpoint) is 1.3 µM. The molecule also came in with an IC50 under setting [1] of 32 µM. Besides, the IC50 under setting [2] worked out at 1.3 µM.

As to `CC(C(=O)Nc1ccc(Br)cc1)N1CCN(c2ccc([N+](=O)[O-])cc2)CC1` (stereo unspecified), the IC50 is > 50 µM (inactive). This molecule also returned an IC50 under setting [1] above 50 µM. Besides, the IC50 under setting [2] was above 50 µM.

Regarding `COc1ccc2ncc(=O)n(CCN3CCC(NCc4ccc(-c5cccs5)cc4)CC3)c2n1`, the IC50 was 3.2 µM. This molecule yielded an IC50 under setting [1] of 10 µM. Under setting [2], this molecule yielded an IC50 of 1.3 µM.

Turning to `O=C(CSc1nnc(-c2ccc3c(c2)OCO3)o1)N(Cc1ccco1)CC(F)(F)F`, the half-inhibitory concentration (IC50) is 7.9 µM. Besides, under setting [1], the IC50 is above 50 µM. Further, the IC50 under setting [2] is 3.2 µM.

Regarding `CCc1cccc(CC)c1-n1c(SCC(=O)NC(=O)NCc2ccco2)nnc1-c1cccnc1`, the IC50 was > 50 µM (inactive). The same molecule displayed a concentration for half-maximal inhibition (IC50) under setting [1] above 50 µM. Under setting [2], this molecule yielded an IC50 above 50 µM.

As for `CS(=O)(=O)NC1CCC(Nc2ncc(Br)c(Nc3ccccc3C(N)=O)n2)CC1` (stereo unspecified), the IC50 is 2 µM. Moreover, the IC50 under setting [1] worked out at 0.5 µM. For the same molecule, the IC50 under setting [2] came out at 0.79 µM.

With `Cn1c(CC(=O)NNC(=O)c2ccc3ccccc3n2)nc2ccccc21`, the IC50 is 1.3 µM. Also, the IC50 under setting [1] is above 50 µM. Under setting [2], this molecule had a concentration for half-maximal inhibition (IC50) of 0.79 µM.

With `O=C(Nc1nc(-c2ccccn2)cs1)c1ccccc1-n1cnnn1`, the IC50 is 6.3 µM. The same molecule gave an IC50 under setting [1] of 5 µM. For the same molecule, the IC50 under setting [2] was 4 µM.

Consider `CN(C)Cc1ccc(N2CCC(NS(=O)(=O)c3ccc(Cl)cc3)CC2)cc1`, for which the IC50 was > 50 µM (inactive). The molecule further returned a half-inhibitory concentration (IC50) under setting [1] of 25 µM. Moreover, under setting [2], the IC50 came out at 25 µM.

For `CN(C)c1ccc(-c2cc3nccnc3c(OC[C@H]3CCCNC3)n2)cn1`, the IC50 was 20 µM. Also, under setting [1], the IC50 came out at 20 µM. Under setting [2], this molecule registered an IC50 of 25 µM.

Consider `N#Cc1cccc(Cc2cc(Nc3cc(C4CC4)[nH]n3)nc(N3CC[C@H]3C(N)=O)n2)c1`, for which the IC50 is 0.2 µM. The molecule further returned an IC50 under setting [1] of 0.032 µM. Further, the IC50 under setting [2] was 0.079 µM.

Turning to `CNS(=O)(=O)c1ccccc1Nc1nc(Nc2ccnn2C)ncc1Cl`, the IC50 was 0.63 µM. The same molecule showed a half-maximal inhibitory concentration (IC50) under setting [1] of 0.32 µM. For the same molecule, the IC50 under setting [2] is 0.4 µM.

`O=C(NCCc1nc(-c2ccc(F)c(F)c2)n[nH]1)C1CCCCC1`: the IC50 was > 50 µM (inactive). Under setting [1], this molecule displayed an IC50 of 20 µM. This molecule gave an IC50 under setting [2] of 16 µM.

With `O=C(N1CCc2ccccc2CC1)C1(C(=O)N2CCC(n3c(=O)[nH]c4ncccc43)CC2)CC1`, the IC50 is > 50 µM (inactive). Besides, the IC50 under setting [1] is above 50 µM. Also, the 50% inhibitory concentration (IC50) under setting [2] is above 50 µM.

For the molecule `Cc1[nH]nc(-c2nc3ccccc3[nH]2)c1C(=O)NC1CCCNC1` (stereo unspecified), the IC50 is 6.3 µM. Moreover, the IC50 under setting [1] turned out to be 1.6 µM. The same molecule displayed an IC50 under setting [2] of 6.3 µM.

For `CN(C)S(=O)(=O)c1ccc(-c2cnc(N)c(-c3nc4ccc(F)cc4[nH]3)c2)cc1`, the IC50 is 1.6 µM. Under setting [1], this molecule yielded an IC50 of 4 µM. Under setting [2], the half-inhibitory concentration (IC50) is 0.63 µM.

Regarding `COc1ccc(NS(=O)(=O)c2cc(NC(=O)Cc3ccc(C)cc3)ccc2N2CCOCC2)cc1`, the IC50 is > 50 µM (inactive). Besides, the IC50 under setting [1] was above 50 µM. In addition, the IC50 under setting [2] was above 50 µM.

Regarding `CS(=O)(=O)N1CCC(Nc2ncc(Br)c(Nc3cccc(F)c3C(N)=O)n2)CC1`, the half-maximal inhibitory concentration (IC50) was 1.6 µM. Moreover, under setting [1], the IC50 was 1 µM. Also, under setting [2], the IC50 was determined as 0.79 µM.

On to `FC(F)(F)c1cc(C2CCCN(Cc3c[nH]c4ccccc34)C2)nc2ncnn12` (stereo unspecified), for which the IC50 is > 50 µM (inactive). The same molecule registered an IC50 under setting [1] of 16 µM. Besides, under setting [2], the IC50 is above 50 µM.

With `Cc1nn(-c2ccccc2)nc1CNC(=O)CN(Cc1ccccn1)Cc1ccccn1`, the IC50 was 5 µM. Moreover, under setting [1], the IC50 was found to be 63 µM. Also, the IC50 under setting [2] is 5 µM.

Turning to `Cc1cc(=O)n2nc(Oc3ccc(C#N)cc3Cl)sc2n1`, the IC50 was 32 µM. For the same molecule, the IC50 under setting [1] turned out to be 32 µM. The molecule also gave an IC50 under setting [2] of 32 µM.

Turning to `CC1CN(Cc2ccc(C#N)cc2)CCN1c1ccc(NC(=O)c2ccccc2F)cc1` (stereo unspecified), the IC50 is 10 µM. For the same molecule, the IC50 under setting [1] was above 50 µM. In addition, the IC50 under setting [2] came to 5 µM.

In the case of `CC1(Oc2cncc(Cl)c2)CCN(Cc2cc3ccccc3[nH]2)C1` (stereo unspecified), the IC50 is 20 µM. The IC50 under setting [1] is 32 µM. In addition, the IC50 under setting [2] is 32 µM.

For the molecule `C[C@@H](Oc1cc(-n2cnc3ccc(CC(O)CO)cc32)sc1C(N)=O)c1ccccc1Cl` (stereo partly specified), the IC50 was 40 µM. Further, under setting [1], the IC50 was 40 µM. In addition, the IC50 under setting [2] is 32 µM.

With `CC(=O)Nc1ccc(CN2CCC(N3CC(c4ccccc4)(c4ccccc4)OCC3=O)CC2)cc1`, the IC50 is 25 µM. Under setting [1], the IC50 was 40 µM. For the same molecule, the IC50 under setting [2] stood at 20 µM.

Turning to `CCCCc1cc(Nc2cc(C3CCC3)[nH]n2)nc(N2CCC2C(N)=O)n1` (stereo unspecified), the IC50 is 2 µM. Moreover, the IC50 under setting [1] was 1 µM. Further, the IC50 under setting [2] worked out at 0.63 µM.

Take `COc1ccc(NS(=O)(=O)c2cc(-c3cc(C)[nH]n3)ccc2C)cc1OC`: the IC50 was 10 µM. In addition, under setting [1], the concentration for half-maximal inhibition (IC50) was above 50 µM. The IC50 under setting [2] was 7.9 µM.
